± gives the expanded uncertainty stated by the source.
Conditions: 298.15 K, 101.8 kPa, Liquid; for viscosity: Falling or rolling sphere viscometry; for mass density: Vibrating tube method

`CC1=CCC(C(C)C)=CC1` [1-methyl-4-(1-methylethyl)-1,4-cyclohexadiene] gave a viscosity of 1.144 ± 0.031 mPa·s and a mass density of 844.9 ± 1.9 kg/m3.

`C=CC(C)(O)CCC=C(C)C` (stereo unspecified) [3,7-dimethyl-1,6-octadien-3-ol] showed a viscosity of 4.349 ± 0.092 mPa·s and a mass density of 857.28 ± 1 kg/m3.

`CC(C)=CCCC(C)=CC=O` [3,7-dimethyl-2,6-octadienal (cis+trans)] showed a viscosity of 2.019 ± 0.043 mPa·s and a mass density of 883.42 ± 1 kg/m3.

In the case of `C=C1CC[C@H]2C[C@@H]1C2(C)C` [(1S,5S)-6,6-dimethyl-2-methylenebicyclo[3.1.1]heptane], the viscosity is reported as 1.616 ± 0.034 mPa·s and the mass density is reported as 866.93 ± 1 kg/m3.

For `C=C(C)[C@H]1CC=C(C)CC1` [(R)-1-methyl-4-(1-methylethenyl)cyclohexene], the viscosity was 0.8599 ± 0.022 mPa·s and the mass density was 838.59 ± 1.6 kg/m3.

Work on `CCO` [ethanol] yielded a viscosity of 1.125 ± 0.024 mPa·s and a mass density of 785.07 ± 1 kg/m3.

`C=C(C)[C@@H]1CC=C(C)C(=O)C1` [l-carvone] gave a viscosity of 2.456 ± 0.052 mPa·s and a mass density of 958.79 ± 1 kg/m3.

`C=CC(C)(CCC=C(C)C)OC(C)=O` (stereo unspecified) [linalool acetate] gave a viscosity of 2.291 ± 0.049 mPa·s and a mass density of 898.64 ± 1 kg/m3.

From the NIST ThermoML archive (doi:10.1016/j.jct.2013.11.026)
